Laboratory results published in patent US4990613A, “(1R,5S,6S)-2-[(6,7-dih ydro-5H-pyrazolo[1,2-a][1,2,4]triazolium-6-yl)]thio-6-[R-1-hydroxyethyl]- 1-methyl-carbapenem-3-carboxylate and intermediate therefor” (Lederle (Japan), Ltd., priority 1987, dated 1991).
Values after ≈ are worked out from the molar mass of the structure shown. Read-outs that look alike come from different tables or passages of the source.

Legend:
[1] = system: Escherichia coli K12 C600; test: Antibacterial test, agar plate dilution method; format: cell-based; conditions: Escherichia coli, K12C600; 37° C., 18 hours, MH agar; read-out: MIC
[2] = system: Citrobactor freundii GN 346; test: Antibacterial activity against clinically isolated β-lactamase producing strains; format: cell-based; conditions: cephalosporinase producing strain, 18 to 20 hours; read-out: MIC
Description: (§1) A solution of a cephalosporinase producing strain stored by Episome Research Institute, which was prepared by incubating the strain in a sensitivity test broth (STB; product of Nissui K.K.) for 18 hours, was diluted with a fresh STB solution to contain 10^5 cells per milliliter and the diluted solution was then inoculated as spots with a microplanter on a sensitivity disk agar-N (SDA; product of Nissui K.K.) containing a test compound. The disk agar was then incubated for 18 to 20 hours. A minimum inhibitory concentration was determined as a minimum concentration in which the test microorganism had no longer grown after a 18 to 20 hour incubation.

[3] = system: Citrobactor freundii GN 7391; test: as above; format: cell-based; conditions: cephalosporinase producing strain, 18 to 20 hours; read-out: MIC
Description: as §1

[4] = system: Enterobacter cloacae GN 5797; test: as above; format: cell-based; conditions: Enterobacter cloacae, GN5797; cephalosporinase producing strain, 18 to 20 hours; read-out: MIC
Description: as §1

Escherichia coli GN 5482 = test: as above; format: cell-based; conditions: Escherichia coli, GN5482; cephalosporinase producing strain, 18 to 20 hours; read-out: MIC
Description: as §1

[5] = system: Escherichia coli No. 1501; test: as above; format: cell-based; conditions: Escherichia coli, NO.1501; cephalosporinase producing strain, 18 to 20 hours; read-out: MIC
Description: as §1

Escherichia coli No. 96 = test: as above; format: cell-based; conditions: Escherichia coli, NO.96; cephalosporinase producing strain, 18 to 20 hours; read-out: MIC
Description: as §1

[6] = system: Klebsiella oxytoca GN 10650; test: as above; format: cell-based; conditions: Klebsiella oxytoca, GN10650; cephalosporinase producing strain, 18 to 20 hours; read-out: MIC
Description: as §1

Proteus morganii GN 5307 = test: as above; format: cell-based; conditions: Morganella morganii, GN5307; cephalosporinase producing strain, 18 to 20 hours; read-out: MIC
Description: as §1

Proteus morganii GN 5375 = test: as above; format: cell-based; conditions: Morganella morganii, GN5375
Description: as §1

Proteus morganii GN 5407 = test: as above; format: cell-based; conditions: Morganella morganii, GN5407
Description: as §1

Proteus vulgaris GN 4413 = test: as above; format: cell-based; conditions: Proteus vulgaris, GN4413
Description: as §1

Proteus vulgaris GN 7919 = test: as above; format: cell-based; conditions: Proteus vulgaris, GN7919
Description: as §1

[7] = system: Providencia rettgeri GN 4430; test: as above; format: cell-based; conditions: Providencia rettgeri, GN4430; cephalosporinase producing strain, 18 to 20 hours; read-out: MIC
Description: as §1

[8] = system: Providencia rettgeri GN 4762; test: as above; format: cell-based; conditions: Providencia rettgeri, GN4762; cephalosporinase producing strain, 18 to 20 hours; read-out: MIC
Description: as §1

[9] = system: Providencia rettgeri GN 5284; test: as above; format: cell-based; conditions: Providencia rettgeri, GN5284; cephalosporinase producing strain, 18 to 20 hours; read-out: MIC
Description: as §1

[10] = system: Pseudomonas aeruginosa GN 10362; test: as above; format: cell-based; conditions: Pseudomonas aeruginosa, GN10362
Description: as §1

[11] = system: Pseudomonas aeruginosa GN 10367; test: as above; format: cell-based; conditions: Pseudomonas aeruginosa, GN10367
Description: as §1

[12] = system: Serratia marcescens GN 10857; test: as above; format: cell-based; conditions: Serratia marcescens, GN10857
Description: as §1

Serratia marcescens L-65 = test: as above; format: cell-based; conditions: Serratia marcescens, L65; cephalosporinase producing strain, 18 to 20 hours; read-out: MIC
Description: as §1

Serratia marcescens L-82 = test: as above; format: cell-based; conditions: Serratia marcescens, L82; cephalosporinase producing strain, 18 to 20 hours; read-out: MIC
Description: as §1

[13] = system: Staphylococcus aureus FDA 209P JC-1; test: Antibacterial test, agar plate dilution method; conditions: Staphylococcus aureus, FDA209P, 18 h
[14] = system: Staphylococcus aureus Terajima; test: Antibacterial test, agar plate dilution method; conditions: Staphylococcus aureus, 18 h
[15] = system: Staphylococcus aureus MS352; test: Antibacterial test, agar plate dilution method; conditions: Staphylococcus aureus, MS352, 18 h
[16] = system: Bacillus subtilis ATCC6633; test: Antibacterial test, agar plate dilution method; conditions: Bacillus subtilis, ATCC6633, 18 h
[17] = system: Escherichia coli NIHJ JC-2; test: Antibacterial test, agar plate dilution method; conditions: Escherichia coli, NIHJJC2, 18 h
[18] = system: Enterobacter aerougenes ATCC13048; test: Antibacterial test, agar plate dilution method; conditions: Enterobacter, ATCC13048, 18 h
[19] = system: Klebsiella pneumoniae PCI-602; test: Antibacterial test, agar plate dilution method; conditions: Klebsiella pneumoniae, PCI602, 18 h
[20] = system: Salmonella enteritidis G14; test: Antibacterial test, agar plate dilution method; conditions: Salmonella enterica, ENTERITIDIS, 18 h
[21] = system: Providencia rettgeri IFO 3850; test: Antibacterial test, agar plate dilution method; conditions: Providencia rettgeri, IFO3850, 18 h
[22] = system: Pseudomonas aeruginosa NCTC 10490; test: Antibacterial test, agar plate dilution method; conditions: Pseudomonas aeruginosa, NCTC10490, 18 h
[23] = cephalosporinase producing strain, 18 to 20 hours, read-out: MIC

SMILES	MIC [1]	MIC [2]	MIC [3]	MIC [4]	MIC (Escherichia coli GN 5482)	MIC [5]	MIC (Escherichia coli No. 96)	MIC [6]	MIC (Proteus morganii GN 5307)	MIC [7]	MIC [8]	MIC [9]	MIC [11]	MIC (Serratia marcescens L-65)	MIC (Serratia marcescens L-82)	MIC [13]	MIC [14]	MIC [15]	MIC [16]	MIC [17]	further results
C[C@@H](O)[C@H]1C(=O)N2C(C(=O)O)=C(SCCN=CN)C[C@H]12 [Imipenem]	3.13 µg/mL (≈ 10.5 µM)	0.39 µg/mL (≈ 1.3 µM)	0.78 µg/mL (≈ 2.61 µM)	0.39 µg/mL (≈ 1.3 µM)	0.1 µg/mL (≈ 0.334 µM)	0.1 µg/mL (≈ 0.334 µM)	0.1 µg/mL (≈ 0.334 µM)	0.2 µg/mL (≈ 0.668 µM)	0.78 µg/mL (≈ 2.61 µM)	0.39 µg/mL (≈ 1.3 µM)	0.39 µg/mL (≈ 1.3 µM)	0.39 µg/mL (≈ 1.3 µM)	1.56 µg/mL (≈ 5.21 µM)	0.39 µg/mL (≈ 1.3 µM)	0.2 µg/mL (≈ 0.668 µM)	0.025 µg/mL (≈ 0.0835 µM)	< 0.006 µg/mL	0.013 µg/mL (≈ 0.0434 µM)	0.025 µg/mL (≈ 0.0835 µM)	0.1 µg/mL (≈ 0.334 µM)	MIC (Proteus morganii GN 5375): 3.13 µg/mL (≈ 10.5 µM); MIC (Proteus morganii GN 5407): 3.13 µg/mL (≈ 10.5 µM); MIC (Proteus vulgaris GN 4413): 6.25 µg/mL (≈ 20.9 µM); MIC (Proteus vulgaris GN 7919; [23]): 0.39 µg/mL (≈ 1.3 µM); MIC [10, 23]: 0.78 µg/mL (≈ 2.61 µM); MIC [12]: 3.13 µg/mL (≈ 10.5 µM); MIC [18]: 0.2 µg/mL (≈ 0.668 µM); MIC [19]: 0.39 µg/mL (≈ 1.3 µM); MIC [20]: 0.78 µg/mL (≈ 2.61 µM); MIC [21]: 0.78 µg/mL (≈ 2.61 µM); MIC [22]: 0.78 µg/mL (≈ 2.61 µM)
Cc1nnc(SCC2=C(C(=O)O)N3C(=O)[C@@H](NC(=O)Cn4cnnn4)[C@H]3SC2)s1 [CEZ]	0.78 µg/mL (≈ 1.72 µM)	25 µg/mL (≈ 55 µM)	> 100 µg/mL	0.39 µg/mL (≈ 0.858 µM)	0.78 µg/mL (≈ 1.72 µM)	0.2 µg/mL (≈ 0.44 µM)	0.78 µg/mL (≈ 1.72 µM)	0.2 µg/mL (≈ 0.44 µM)	0.2 µg/mL (≈ 0.44 µM)	0.2 µg/mL (≈ 0.44 µM)	0.78 µg/mL (≈ 1.72 µM)	0.2 µg/mL (≈ 0.44 µM)	3.13 µg/mL (≈ 6.89 µM)	0.2 µg/mL (≈ 0.44 µM)	0.39 µg/mL (≈ 0.858 µM)	0.2 µg/mL (≈ 0.44 µM)	0.05 µg/mL (≈ 0.11 µM)	0.1 µg/mL (≈ 0.22 µM)	0.1 µg/mL (≈ 0.22 µM)	0.78 µg/mL (≈ 1.72 µM)	MIC (Proteus morganii GN 5375; [23]): 0.2 µg/mL (≈ 0.44 µM); MIC (Proteus morganii GN 5407; [23]): 0.39 µg/mL (≈ 0.858 µM); MIC (Proteus vulgaris GN 4413; [23]): 0.2 µg/mL (≈ 0.44 µM); MIC (Proteus vulgaris GN 7919): 3.13 µg/mL (≈ 6.89 µM); MIC [10]: 3.13 µg/mL (≈ 6.89 µM); MIC [12, 23]: 0.78 µg/mL (≈ 1.72 µM); MIC [18]: > 100 µg/mL; MIC [19]: 0.78 µg/mL (≈ 1.72 µM); MIC [20]: 0.78 µg/mL (≈ 1.72 µM); MIC [21]: 12.5 µg/mL (≈ 27.5 µM); MIC [22]: > 100 µg/mL
